Active and inactive are the calls of the source. No cut-off for these calls is given here.

The test system of assay [1] is Mus musculus. The experiment in a line: Antiinflammatory activity against oxazolone-induced atopic dermatitis in nude mouse assessed as decrease in transepidermal water loss at 0.01 % administered topically bid simultaneously with oxazolone qd for 10 days following 5 days post-oxazolone challenge relative to control. Type of assay: functional. Also noted: scale not given: the % may be the effect or the level left.

For assay [2], the system named is Mus musculus. The experiment in a line: Antiinflammatory activity against oxazolone-induced atopic dermatitis in nude mouse assessed as decrease in transepidermal water loss at 0.3 % administered topically bid simultaneously with oxazolone qd for 10 days following 5 days post-oxazolone challenge relative to control. The assay is classed as functional, organism-based. Also on record: scale not given: the % may be the effect or the level left.

The subject of assay [3] is Mus musculus. Nature of the assay: Antiinflammatory activity against oxazolone-induced atopic dermatitis in nude mouse assessed as decrease in transepidermal water loss at 1.8 % administered topically bid simultaneously with oxazolone qd for 10 days following 5 days post-oxazolone challenge relative to control. Type of assay: functional, organism-based. Also noted: scale not given: the % may be the effect or the level left.

Assay [4] concerns Mus musculus. The experiment in a line: Antiinflammatory activity against oxazolone-induced atopic dermatitis in nude mouse assessed as decrease in skin thickness at 0.3 to 1.8 % administered topically bid simultaneously with oxazolone qd for 10 days following 5 days post-oxazolone challenge relative to control. The assay is classed as functional, organism-based.
Assay [5] deals with Mus musculus. Nature of the assay: Antiinflammatory activity against oxazolone-induced atopic dermatitis in nude mouse assessed as decrease in skin thickness at 0.01 % administered topically bid simultaneously with oxazolone qd for 10 days following 5 days post-oxazolone challenge relative to control. Type of assay: functional, organism-based.
Assay [6] concerns Mus musculus. The experiment in a line: Antiinflammatory activity against oxazolone-induced atopic dermatitis in nude mouse assessed as infiltration of lymphocytes in dermis at 1.8 % administered topically bid simultaneously with oxazolone qd for 10 days following 5 days post-oxazolone challenge relative to control. Type of assay: functional, organism-based.
The test system of assay [7] is Mus musculus. Nature of the assay: Antiinflammatory activity against oxazolone-induced atopic dermatitis in nude mouse assessed as alleviation of parkeratotic scales at 1.8 % administered topically bid simultaneously with oxazolone qd for 10 days following 5 days post-oxazolone challenge relative to control. The assay is classed as functional, organism-based.
Assay [8] deals with Mus musculus. Nature of the assay: Antiinflammatory activity against oxazolone-induced atopic dermatitis in nude mouse assessed as reduction in IgE level at 0.3 to 1.8 % administered topically bid simultaneously with oxazolone qd for 10 days following 5 days post-oxazolone challenge relative to control. The assay is classed as functional, organism-based.

On to `C[C@H]1C[C@H]2[C@@H]3CCC4=CC(=O)C=C[C@]4(C)[C@@]3(F)[C@@H](O)C[C@]2(C)[C@@]1(O)C(=O)CO` [BETAMETHASONE], for which the Activity with Mus musculus [1] was determined as 57%.
“N-((2S)-2-(3,4-dihydroxy-5-oxo-2,5-dihydrofuran-2-yl)-2-hydroxyethyl)-3-(trimethylgermyl)propanamide”: the figures for the Activity with Mus musculus [2] and in the assay with Mus musculus [3] were 6% and 39%, respectively. Further, the result with Mus musculus [4], in the assay with Mus musculus [5], with Mus musculus [6], in the assay on Mus musculus [7] and in the assay with Mus musculus [8] was Active.
